Assays:
DHL-4 B cells = assay: CDC assay on DHL-4 B cells; assay type: cell-based; conditions: FIG. 7
Experimental: Cells were suspended in Iscoves (#12440-053, Gibco/Invitrogen, Granland, N.Y.) at 5×10E^5 cells/well in 75 μl. […] Binding reactions were allowed to proceed for 45 minutes prior to centrifugation and washing in serum free Iscoves. Cells were resuspended in Iscoves with human serum (#A113, Quidel, San Diego, Calif.) at the indicated concentrations. The cells were incubated 60 minutes at 37° C. Cells were washed by centrifugation and resuspended in 125 μl PBS with 2% FBS (#16140-071, Gibco, Invitrogen, Grand Island, N.Y.), staining media. The cells were transferred to FACS cluster tubes (#4410, CoStar, Corning, N.Y.) and 125 μl staining media with 5 μl propidium iodide (PI, #P-16063, Molecular Probes, Eugene Oreg.) was added. Samples were incubated 15 minutes at room temperature in the dark prior to analysis by flow cytometry using a FACsCalibur and CellQuest software (Becton Dickinson).

B-CLL cells = assay: MTT cell viability of CLL cells with fludarabine and TRU-016; assay type: cell-based, human; conditions: MTT at 48 hr, TRU-016 with fludarabine, FIG. 27
Experimental: Cells were treated with TRU-016 at dosages ranging from 0.1-100 μg/mL and with fludarabine at dosages ranging from 0-20 μM (see FIG. 27). TRU-016 was provided by Trubion Pharmaceuticals (Seattle, Wash.). Fludarabine (F-araA) was purchased from SIGMA (St. Louis, Mo.). RPMI 1640 media was purchased from Invitrogen (Carlsbad, Calif.). Fluorescein isothiocyanate (FITC)-labeled annexin V, and propidium iodide (P1) were purchased from BD Pharmingen, San Diego, Calif. 13-(4,5-dimethylthiazol-2-yl)-2,5-diphenyltetrazolium bromide (MTT) was purchased from Sigma (St. Louis, Mo.). B-CLL cells were isolated immediately following donation using ficoll density gradient centrifugation (Ficoll-Paque Plus, Amersham Biosciences, Piscataway, N.J.). […]
Cells were treated in vitro as described herein. […] Cell viability was assessed using MTT assays at 48 hr, and apoptosis was measured using Annexin V/PI at 24 hr.
MTT assays were performed to measure cell viability as described herein. […] Samples were measured with a plate reader at 0.D.540. Cell viability was expressed as the percentage of viability compared with media control.
A synergistic effect was determined by use of the isobologram method. […]

[1] = tested on: CD19+ primary CLL B cells; assay: tyrosine phosphorylation, 2D gel anti-phosphotyrosine immunoblot; assay type: cell-based, human; conditions: 5 ug/ml, 10 minutes, then crosslinker 25 ug/ml 5 minutes, FIG. 29
Experimental: Freshly isolated CD19+ cells (−50−100×106) from CLL patients were suspended at a concentration of 5×10^6/ml PBS. Cells were then incubated for 10 minutes at 37° C., 5% CO2, with control, trastuzumab (herceptin), or TRU-016 at a final concentration of 5 ug/ml. Cells were spun down, supernatant was removed, and cells were resuspended in fresh PBS of initial volume. Goat anti-human Fc fragment specific crosslinker (25 ug/ml) was added and cells were incubated for an additional 5 minutes. Cells were again spun down, supernatant was removed, and cells were lysed in 1 ml of RIPA lysis buffer with protease and phosphatase inhibitors (10 mM Tris, ph7.4, 150 mM NaCl,1% Triton X-100, 1% deoxycholic acid, 0.1% SDS and 5 mM EDTA all final concentrations. Sigma protease inhibitor cocktail cat#P-8340; Sigma phosphatase inhibitor cocktail: serine/threonine phosphatase inhibitor cocktail pat#P-2850; and tyrosine phosphatase inhibitor cat#P-5726;PMSF (100 mM) were all used. The inhibitors were added to the lysis buffer immediately prior to use at a 1:100 dilution. Protein concentration in the lysates was quantified by the bicin choninic acid (BCA) method (Pierce, Rockford, Ill.). The control arid treated protein samples (SOug total protein) were separated by two-dimensional gel electrophoresis (pH Range 3-10) (1st Dimension) and 10% SDS-PAGE (2nd Dimension). […]

G28-1 scFv VH11S(SSC—P)H WCH2 WCH3 [TRU-016]
CDC killing of DHL-4 B cells (DHL-4 B cells): little or no activity alone | relative cell viability in cells treated with fludarabine (B-CLL cells): effectively reduced relative cell viability | tyrosine phosphorylation [1]: induced tyrosine phosphorylation

Source: US10143748B2, “B-cell reduction using CD37-specific and CD20-specific binding molecules” (Emergent Product Development Seattle, LLC, priority 2005, dated 2018)
